Tested on: model of urethral obstruction with the guinea pigs
Assay: Dysuria pathological model (urethral obstruction), cystometry
Format: in vivo, guinea pig
Conditions: for Frequency of non-voiding contraction, pre-administration / Residual urine volume, pre-administration: baseline before administration; for Frequency of non-voiding contraction, pre-administration / Residual urine volume, pre-administration / Frequency of non-voiding contraction, post-administration / Residual urine volume, post-administration: mean; for Frequency of non-voiding contraction, quantitative change / Residual urine volume, quantitative change: post minus pre; for Frequency of non-voiding contraction, post-administration / Residual urine volume, post-administration: up to 30 min after administration
Method: (3) Investigation of PDE9 Inhibitory Activity on Dysuria Pathological Model
Three to four weeks old female Hartley strain guinea pigs (Nippon SLC) were laparotomized under anesthesia with pentobarbital (30 mg/kg i.p.), and a polyethylene tube of 1.4 mm in width and 2.0 mm in inner diameter was placed in each guinea pig's urethra to the distal side by 1-2 mm from the bladder neck. After closing the incision, the guinea pigs were reared for at least 3 weeks to provide a model of urethral obstruction with the guinea pigs in which rise in intravesical pressure not accompanied by voiding (non-voiding contraction) and residual urine were induced.
The model was catheterized under anesthesia with urethane (1 g/kg i.p.) at the apex of urinary bladder and right jugular vein for cystometrography and intravenous administration, respectively. The other end of the bladder catheter was connected to a pressure transducer and infusion pump through three way stopcock. By means of the infusion pump, physiological saline was continuously infused into the bladder at a rate of 0.4 mL/min to induce micturition reflex. Immediately after the micturition reflex was induced, the physiological saline infusion into the bladder was stopped. The intravesical pressure at the time the micturition occurred was measured with the pressure transducer and the cystometrogram was recorded with pen recorder. The urine voided was collected with a disposable type weighing dish to measure its weight. Further the physiological saline remained in the bladder was sucked with syringe through the bladder catheter to measure the residual urine volume. Multiple operation cycles (normally 4 times) of suspending physiological saline infusion when micturition reflex was induced and resuming the infusion after about 1 minute to induce next micturition reflex, were repeated to stabilize the voiding response.
Also the frequency of non-voiding contraction occurred during the operations was measured. The respective mean values of frequency of non-voiding contraction and residual urine volume in the experiment using several guinea pigs are shown in the following Table B.

SMILES | Frequency of non-voiding contraction, pre-administration (0.3 mg/kg i.v.) [count/min] | Residual urine volume, pre-administration (0.3 mg/kg i.v.) [mL] | Frequency of non-voiding contraction, post-administration (0.3 mg/kg i.v.) [count/min] | Residual urine volume, post-administration (0.3 mg/kg i.v.) [mL] | Frequency of non-voiding contraction, pre-administration (3 mg/kg i.v.) [count/min] | Residual urine volume, pre-administration (3 mg/kg i.v.) [mL] | Frequency of non-voiding contraction, post-administration (3 mg/kg i.v.) [count/min] | Residual urine volume, post-administration (3 mg/kg i.v.) [mL] | Frequency of non-voiding contraction, pre-administration (10 mg/kg i.v.) [count/min] | Residual urine volume, pre-administration (10 mg/kg i.v.) [mL] | Frequency of non-voiding contraction, post-administration (10 mg/kg i.v.) [count/min] | Residual urine volume, post-administration (10 mg/kg i.v.) [mL] | Frequency of non-voiding contraction, pre-administration (1 mg/kg i.v.) [count/min] | Residual urine volume, pre-administration (1 mg/kg i.v.) [mL] | Frequency of non-voiding contraction, post-administration (1 mg/kg i.v.) [count/min] | also measured
O=C(O)c1cc2c(=O)[nH]c(Cc3cccc(Cl)c3)nc2s1 [Example 104, 2-(3-Chlorobenzyl)-4-oxo-3,4-dihydrothieno[2,3-d]pyrimidine-6-carboxylic acid] | 1.08 | 1.54 | 0.55 | 1.02 | 1.44 | 1.37 | 0.78 | 0.88 | 1.57 | 1.68 | 0.83 | 0.62 | – | – | – | Frequency of non-voiding contraction, quantitative change (0.3 mg/kg i.v.): −0.53 count/min; Residual urine volume, quantitative change (0.3 mg/kg i.v.): -0.52 mL; Frequency of non-voiding contraction, quantitative change (3 mg/kg i.v.): −0.66 count/min; Residual urine volume, quantitative change (3 mg/kg i.v.): -0.49 mL; Frequency of non-voiding contraction, quantitative change (10 mg/kg i.v.): −0.74 count/min; Residual urine volume, quantitative change (10 mg/kg i.v.): -1.06 mL
Cc1c(C(=O)O)sc2nc(Cc3ccc(Cl)c(Cl)c3)[nH]c(=O)c12 [Example 36, 2-(3,4-Dichlorobenzyl)-5-methyl-4-oxo-3,4-dihydrothieno-[2,3-d]pyrimidine-6-carboxylic acid] | – | – | – | – | 1.16 | 1.33 | 0.77 | – | 1.11 | 1.06 | 0.64 | 0.64 | 0.96 | 0.82 | 0.79 | Residual urine volume, post-administration (1 mg/kg i.v.): 0.86 mL
Cc1c(C(=O)O)sc2nc(Cc3cccc(Cl)c3)[nH]c(=S)c12 [Example 112, 2-(3-Chlorobenzyl)-5-methyl-4-thioxo-3,4-dihydrothieno-[2,3-d]pyrimidine-6-carboxylic acid] | 1.12 | – | 1.02 | 0.91 | 1.12 | 1.02 | 0.76 | 0.27 | 1.12 | 1.02 | 0.59 | 0.48 | – | – | – | –
Cc1c(C(=O)O)sc2nc(Cc3cccs3)[nH]c(=O)c12 [Example 2, 5-Methyl-4-oxo-2-(thiophen-2-ylmethyl)-3,4-dihydrothieno[2,3-d]pyrimidine-6-carboxylic acid] | – | – | – | – | – | – | – | – | 0.91 | 1.27 | 0.78 | – | 0.91 | 1.27 | 0.47 | –
Cc1c(C(=O)O)sc2nc(Cc3cccc(Cl)c3)[nH]c(=O)c12 [Example 10, 2-(3-Chlorobenzyl)-5-methyl-4-oxo-3,4-dihydrothieno-[2,3-d]pyrimidine-6-carboxylic acid] | 1.16 | 0.95 | 0.80 | – | 1.16 | 0.95 | 0.49 | – | 1.16 | – | 0.60 | 0.95 | – | – | – | –

Reference: patent US8377944B2, “Thienopyrimidine derivatives” (ASKA Pharmaceutical Co., Ltd., priority 2005, dated 2013)
